Measured values published in US8609836B2, “4-aryl-2-anilino-pyrimidines” (Janssen Pharmaceutica NV, priority 2008, dated 2013).

What was measured:
AuroraB (h) = AuroraB (h) (Homo sapiens, UniProt Q96GD4); test: Aurora-B human kinase inhibition, SPA; type: biochemical; conditions: read-out: AuroraB pIC50 (converted)
Summary of the method: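 SPA with biotinylated peptide (3 μM) in 60 mM Hepes pH 7.5, Mg/Mn 3 mM each, 0.5 μM ATP plus [γ-33P]ATP, AuroraB at 0.5 μg/ml. The reaction runs 60 min at room temperature and is stopped with EDTA and streptavidin PVT beads. 33P-substrate is read by scintillation imaging.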

GSK3β (h) = GSK3β (h) (Homo sapiens, UniProt P49841); test: GSK-3β human kinase inhibition, SPA; type: biochemical; conditions: read-out: GSK3b pIC50 (converted)
Summary of the method: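 Scintillation proximity assay: GSK3β (1 μg/ml) with 1 μM biotinylated peptide, 1 μM ATP plus [γ-33P]ATP in Tris pH 7.4, MgCl2, DTT. 60 min at room temperature, stopped with EDTA and streptavidin PVT beads; phosphorylation read by Leadseeker imaging.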

CDK4/CyclinD1 (h) = CDK4/CyclinD1 (h) (Homo sapiens, UniProt P11802); test: CDK4/CyclinD1 human kinase inhibition, SPA with GST-pRb substrate; type: biochemical; conditions: read-out: CDK4 pIC50 (converted)
Summary of the method: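 Human CDK4/CyclinD1 (2.5 μg/ml) was incubated with 40 μg/ml GST-pRb and 2 nM [γ-33P]ATP in 50 mM Hepes pH 7.5, 8 mM NaF, 20 mM MgCl2, 1 mM DTT for 60 min at room temperature. EDTA stop with glutathione SPA beads; phosphorylation read by scintillation counting.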

HCT-116 = test: Cellular proliferation assay (Alamar blue), HCT-116; type: cell-based; conditions: Homo sapiens, 10% FCS, 72 hours with compound, Alamar blue 4 h
Summary of the method: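 Cells were seeded in medium with 10% FCS at 37° C, 5% CO2, left 24 h without compound, then exposed to compounds for 72 h. Viability was read with Alamar blue (resazurin 9 μg/ml, K-ferrocyanide and K-ferricyanide 90 μM each), 6 h for U87-MG, 4 h for HCT-116, 24 h for A2780 and MDA-MB-231.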

CDK4/CyclinD1 (h), sequence (P11802 whole entry): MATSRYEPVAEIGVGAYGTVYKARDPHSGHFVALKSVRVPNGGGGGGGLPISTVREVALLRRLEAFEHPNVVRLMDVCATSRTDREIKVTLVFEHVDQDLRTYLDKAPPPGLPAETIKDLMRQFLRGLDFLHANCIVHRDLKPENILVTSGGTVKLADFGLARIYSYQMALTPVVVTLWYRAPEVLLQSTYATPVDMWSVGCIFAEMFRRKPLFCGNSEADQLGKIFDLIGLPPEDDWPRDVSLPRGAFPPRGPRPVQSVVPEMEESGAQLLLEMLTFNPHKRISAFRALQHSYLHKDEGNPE
CDK4/CyclinD1 (h), sequence (P24385 whole entry partner): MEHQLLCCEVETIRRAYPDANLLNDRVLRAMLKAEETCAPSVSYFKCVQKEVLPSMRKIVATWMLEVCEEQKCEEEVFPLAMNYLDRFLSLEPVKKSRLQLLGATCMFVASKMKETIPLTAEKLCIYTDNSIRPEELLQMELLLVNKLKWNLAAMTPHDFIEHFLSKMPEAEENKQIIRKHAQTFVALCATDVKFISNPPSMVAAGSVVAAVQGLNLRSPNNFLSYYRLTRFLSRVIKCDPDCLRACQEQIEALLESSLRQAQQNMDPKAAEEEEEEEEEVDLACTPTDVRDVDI
GSK3β (h), sequence (P49841 whole entry): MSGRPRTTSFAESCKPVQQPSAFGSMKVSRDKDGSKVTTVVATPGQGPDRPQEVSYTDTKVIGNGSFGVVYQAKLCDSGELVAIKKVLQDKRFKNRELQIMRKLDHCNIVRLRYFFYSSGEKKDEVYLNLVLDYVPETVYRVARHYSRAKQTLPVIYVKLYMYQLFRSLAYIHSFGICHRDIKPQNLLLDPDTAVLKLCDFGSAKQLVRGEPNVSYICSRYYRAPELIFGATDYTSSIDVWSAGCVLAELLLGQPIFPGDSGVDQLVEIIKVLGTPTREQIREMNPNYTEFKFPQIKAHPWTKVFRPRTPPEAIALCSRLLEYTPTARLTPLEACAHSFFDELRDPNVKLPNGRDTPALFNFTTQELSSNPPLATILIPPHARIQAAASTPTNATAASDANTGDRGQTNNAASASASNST
AuroraB (h), sequence (Q96GD4 whole entry): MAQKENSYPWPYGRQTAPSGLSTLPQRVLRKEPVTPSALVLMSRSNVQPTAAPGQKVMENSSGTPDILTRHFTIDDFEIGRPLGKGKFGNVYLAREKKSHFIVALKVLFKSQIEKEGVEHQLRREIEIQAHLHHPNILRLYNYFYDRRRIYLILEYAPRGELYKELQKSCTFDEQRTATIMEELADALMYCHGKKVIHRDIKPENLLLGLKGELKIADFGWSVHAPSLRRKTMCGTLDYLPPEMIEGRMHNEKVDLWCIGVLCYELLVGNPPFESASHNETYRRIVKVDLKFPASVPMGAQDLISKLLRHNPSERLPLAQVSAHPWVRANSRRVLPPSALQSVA

Row | Compound | IC50 (AuroraB (h)) | IC50 (GSK3β (h)) | IC50 (CDK4/CyclinD1 (h)) | IC50 (HCT-116)
1 | O=C1CN2CCN(CC2)Cc2ccc(cc2)Nc2nccc(n2)-c2cccc(c2)CN1 [Compound 193] | > 10 µM | 3.24 µM | 4.37 µM | > 10 µM
2 | C[C@@H]1NCc2cccc(c2)-c2ccnc(n2)Nc2ccc(N3CCOCC3)c(c2)CNC1=O [Compound 101] | > 10 µM | 0.182 µM | 2.57 µM | 2.69 µM
3 | O=C1CN2CCN(CC2)Cc2cc(ccc2N2CCOCC2)Nc2nccc(n2)-c2cccc(c2)CN1 [Compound 20] | > 10 µM | 6.03 µM | > 10 µM | > 10 µM
4 | CN1CCN(C(=O)c2cc3cc(c2)Nc2nccc(n2)-c2cccc(c2)CNC(=O)[C@@H]2CCCN2C3)CC1 [Compound 34] | > 10 µM | 0.525 µM | 8.71 µM | 5.89 µM
5 | CN1CCNC(=O)[C@@H]2CCCN2Cc2cccc(c2)Nc2nccc(n2)-c2ccc(cc2)C1 [Compound 160] | > 10 µM | 5.5 µM | > 10 µM | > 10 µM
6 | CN1CCNC(=O)CN2CCN(CC2)Cc2cccc(c2)Nc2nccc(n2)-c2ccc(cc2)C1 [Compound 134] | > 10 µM | 1.32 µM | > 10 µM | 5.25 µM
7 | O=C1CN2CCN(CC2)Cc2cc(ccc2N2CCOCC2)Nc2nccc(n2)-c2ccc(cc2)CN1 [Compound 194] | > 10 µM | 6.03 µM | 1.7 µM | > 10 µM
8 | O=C1NCc2cccc(c2)-c2ccnc(n2)Nc2ccccc2CN2CCC[C@@H]12 [Compound 57] | > 10 µM | > 10 µM | > 10 µM | > 10 µM
9 | O=C1NCc2cccc(c2)-c2ccnc(n2)Nc2ccc(N3CCOCC3)c(c2)CN2C[C@@H](O)C[C@@H]12 [Compound 27] | > 10 µM | 0.141 µM | 1.78 µM | 0.891 µM
10 | C[C@@H]1NCc2cccc(c2)Nc2nccc(n2)-c2cccc(c2)CNC1=O [Compound 184] | > 10 µM | 0.102 µM | 1.17 µM | 5.37 µM
11 | COc1ccc2cc1CN(C)CCNC(=O)C1CCN(CC1)Cc1cc(NCCc3ccccc3)cc(c1)Nc1nccc-2n1 [Compound 74] | > 10 µM | > 10 µM | > 10 µM | 4.68 µM
12 | O=C1CN2CCN(CC2)Cc2cccc(c2)Nc2nccc(n2)-c2cccc(c2)CN1 [Compound 196] | > 10 µM | 1.07 µM | 6.17 µM | > 10 µM
13 | O=C1NCc2cccc(c2)-c2ccnc(n2)Nc2cc(ccc2Cl)CN[C@H]1CO [Compound 188] | > 10 µM | 6.61 µM | > 10 µM | > 10 µM
14 | O=C1CN2CCN(CC2)Cc2ccc(Cl)c(c2)Nc2nccc(n2)-c2cccc(c2)CN1 [Compound 195] | > 10 µM | > 10 µM | > 10 µM | > 10 µM
15 | O=C1CN2CCN(CC2)Cc2cc(ccc2N2CCOCC2)Nc2nccc(n2)-c2cccc(c2)OCCN1 [Compound 102] | > 10 µM | 0.24 µM | 8.13 µM | 1.29 µM
16 | O=C1NCc2ccc(cc2)-c2ccnc(n2)Nc2ccc(N3CCOCC3)c(c2)CN2CCC[C@@H]12 [Compound 49] | > 10 µM | > 10 µM | > 10 µM | > 10 µM
17 | COc1cc2cc(c1)Nc1nccc(n1)-c1ccc(OC)c(c1)CN(C)CCNC(=O)C1CCN(CC1)C2 [Compound 67] | 5.13 µM | 3.09 µM | > 10 µM | > 10 µM
18 | O=C1NCc2cccc(c2)-c2ccnc(n2)Nc2cc(ccc2Cl)CN[C@H]1Cc1ccccc1 [Compound 189] | > 10 µM | 6.92 µM | 5.75 µM | > 10 µM
19 | O=C1NCc2cccc(c2)-c2ccnc(n2)Nc2ccc(cc2)CN2C[C@H](O)C[C@@H]12 [Compound 55] | > 10 µM | > 10 µM | > 10 µM | > 10 µM
20 | COc1ccc2cc1CN(C)CCNC(=O)[C@@H]1CCCN1Cc1cc(cc(N3CCOCC3)c1)Nc1nccc-2n1 [Compound 152] | 7.94 µM | 5.13 µM | > 10 µM | > 10 µM
21 | O=C1NCc2cccc(c2)-c2ccnc(n2)Nc2cc(ccc2Cl)CN2C[C@H](O)C[C@@H]12 [Compound 52] | > 10 µM | > 10 µM | > 10 µM | > 10 µM
